Measured values from patent US11234992B2, “Methods and therapies for treating atherosclerosis and/or hyperlipidemia using oligosaccharides” (The Regents of the University of California, priority 2018, dated 2022).
≈ marks a conversion by molar mass, not a printed value. Entries after “also recorded” stand apart in the source; their conditions may differ.

How the values were obtained:
[1] = system: primary bone marrow derived macrophages (BMDM); experiment: LPS-induced M1 polarization and cytokine expression in primary bone marrow derived macrophages; assay type: cell-based; conditions: primary mouse cells; preliminary results
Procedure: (§1) In particular, pooled HMOs (˜100 μg/mL) attenuated LPS-induced M1 polarization and importantly its subsequent cytokine expression (IL-1β, IL-6, etc. mRNA and protein levels) in a mouse macrophage cell line (RAW246) and in primary bone marrow derived macrophages (BMDM). […] Moreover, the attenuation effects remain when cells are stimulated with LipidA instead of LPS, excluding carbohydrate-carbohydrate interactions between LPS and HMOs above the cell surface.
(§2) Here, the aim is to test whether the results translate to in vivo efficacy in a short-term and a long-term disease model of chronic inflammation. Rheumatoid arthritis (RA) is an inflammatory disorder that affects approximately 1% of the adult population worldwide. It is characterized by systemic and local inflammation that leads to cartilage and bone destruction. Collagen antibody-induced arthritis (CAIA) is a simple RA mouse model that can be used to address questions of pathogenic mechanisms and to screen candidate therapeutic agents. Arthritis is induced by the systemic administration of a cocktail of monoclonal antibodies that target various regions of collagen type II, which is one of the major constituents of articular cartilage matrix proteins, together with LPS. […]

[2] = system: mice on a high fat diet (HFD); experiment: In vivo atherosclerosis/hyperlipidemia mouse model on high fat diet; conditions: for inflammation in the liver, adipose tissue and arterial vessel wall / systemic secretion of pro-inflammatory cytokines like IL-1β and IL-6: in vitro and in vivo studies
Procedure: FIG. 1 provides a diagram of a mouse model used to test 3′SL effects on atherosclerosis. In particular, the mice are fed a high fat diet for two weeks prior to treatment in order to promote atherosclerosis in the mice. Treatment begins at the end of the second week with 3′SL or vehicle, whereby 3′SL or vehicle are administered to the mice twice daily at a dose of 90 mg/gavage. After 6 weeks of treatment, the mice are sacrificed and atherosclerosis lesions and plaques are assessed.
The complex pathology of atherosclerosis is characterized by the accumulation of lipids, inflammatory cells, and fibrous elements in large- and medium-sized arteries. According to the “response-to-retention” model, focal infiltration and retention of apolipoprotein B (apoB)-containing lipoproteins, such as low-density lipoproteins (LDLs), lipoprotein (a), and triglyceride-rich remnant particles (TRLs), in the subendothelial matrix of the tunica intima of arteries at atherosclerosis-prone sites initiates atherogenesis. Subsequent oxidation, lipolysis, proteolysis, and further aggregation of trapped LDL particles contribute to a chronic inflammatory response characterized by monocyte and T cell migration into the intima. Monocytes entering the plaque differentiate into macrophages and the expression of scavenger receptors result in internalization of modified lipoprotein particles. Lesion macrophages proliferate, accumulate massive amounts of cholesterol, and become lipid droplet-loaded “foam cells,” resulting in their retention in the lesion. Atherosclerosis is further characterized by the accumulation of M1-like macrophages and secretion of characteristic cytokines and chemokines. Priming of macrophages is sufficient to promote increased macrophage infiltration and inflammation in aorta, exacerbating atherosclerosis. […] Therefore, we will use Ldlr^−/− mice with a hypercholesterolemic background to study atherosclerosis development, which has several advantages: (1) cholesterol in Ldlr^−/− mice is mainly restricted to LDL particles resembling the situation in humans; (2) because of the minor importance of Ldlr in bone marrow derived cells related to atherosclerosis, the Ldlr^−/− mice are a very suitable model to study the role of candidate genes in these cells; (3) initiation of atherosclerotic plaque development can be highly controlled, as atherosclerosis will develop only upon feeding a high-fat/high-cholesterol diet.
Atherogenesis is determined by “en face” preparation of the entire aorta and Sudan IV staining to determine lipid infiltration as a measure for lesion surface as described in Gordts et al. (Arterioscler Thromb Vasc Biol. 29:1258-64 (2009)). In addition, the heart is isolated for sectioning of the aortic root to determine aortic root lesion area and qualitative assessment of the plaque phenotype. Aortic root cross-sectional atherosclerosis is measured by cutting 10 μm paraffin sections starting at the aortic valve plane and covering 1,000 μm in 100-μm increments. Two approaches are used to assess if 3′SL administration affects plaque stability and inflammatory cell composition in atherosclerotic plaques. Sections are immunostained using various antibodies to identify smooth muscle cells and macrophages and apoB content as well as the presence of oxidation-specific antibodies reflective of OxLDL. The extracellular content is visualized via staining using Oil red O (lipids), Hematoxylin and Eosin (necrotic core), Movat Pentachrome (proteoglycans), Masson-Goldner (collagen) and Verhoeffs van Gieson (elastin) staining protocols. As a measurement of the clinically relevant plaque vulnerability/stability in advanced lesions, fibrous cap thickness is determined by comparing serial sections each stained for smooth muscle cells and collagens, and the extent of necrosis will be quantified using imaging techniques as described in Gordts P L et al. (Cell Metabolism 20:813-26 (2014)). […]

[3] = system: mouse macrophage cell line (RAW246); experiment: LPS-induced M1 polarization and cytokine expression in mouse macrophage cell line; assay type: cell-based; conditions: preliminary results
Procedure: as §1, §2

IL-6 = experiment: Attenuation of IL-6 cytokine expression (IC50); assay type: cell-based
Procedure: as §1

MAPK pathway = experiment: Downstream signalling in BMDM, MAPK pathway; assay type: cell-based, mouse; conditions: in the absence and presence of LPS
Procedure: as §1
To elucidate the receptor, signaling pathway and downstream transcription regulated by 3′SL in BMDM, a three-prong approach is utilized: (a) Whole Transcriptome Shotgun Sequencing (WTSS) is used to identify differentially regulated genes. […] In both approaches, naive BMDM is compared with 3′SL-treated BMDM as well LPS-stimulated BMDM and LPS-treated BMDM co-treated with 3′SL; and (c) A 3′SL affinity matrix is generated to run macrophage plasma membrane and isolate 3′SL binding proteins. Proteins are eluted from the matrix using different salt gradients and analyzed by silvers staining. Relevant elution fraction and individual protein bands are isolated and prepared for mass-spectrometry analysis. The above three-way approach allows for the identification of the receptor, signaling pathway and downstream transcription that is regulated by 3′SL. […]

[4] = system: LPS-activated Thp-1 cells (human cell line); experiment: Cytokine expression in LPS-activated Thp-1 cells; assay type: cell-based
IL-1β = experiment: Attenuation of IL-1β cytokine expression (IC50); assay type: cell-based; conditions: cell type not given
Procedure: as §1

[5] = summary statement, lipid metabolism

In the case of CC(=O)NC1C(O)CC(OC2C(O)C(CO)OC(OC(C(O)CO)C(O)C(O)C=O)C2O)(C(=O)O)OC1C(O)C(O)CO (stereo not drawn) [3′SL, 3′-sialyllactose], the “LPS-induced M1 polarization and subsequent cytokine expression (IL-1b, IL-6, etc. mRNA and protein levels)” value [1] is reported as “attenuates”, the “plasma triglycerides (TG) levels” value ([2]; mice on high fat diet, 3′SL twice daily 90 mg/gavage for 6 weeks vs vehicle, FIG. 2A) is reported as “lower plasma triglyceride levels; also recorded: significant decrease” and the cholesterol levels ([2]; mice on high fat diet, 3′SL twice daily 90 mg/gavage for 6 weeks vs vehicle, FIG. 2B) is reported as “lower cholesterol levels; also recorded: significant decrease”. The “lesion area of atherosclerotic lesions (En Face)” value ([2]; mice on high fat diet, 3′SL twice daily 90 mg/gavage for 6 weeks vs vehicle, FIG. 3A) was “smaller lesion areas; also recorded: significantly reduced in size”, the aortic plaque size ([2]; mice on high fat diet, 3′SL twice daily 90 mg/gavage for 6 weeks vs vehicle, FIG. 3B) was “smaller sized plaques; also recorded: significantly reduced” and the “inflammation in the liver, adipose tissue and arterial vessel wall” value ([2]; summary statement) was “attenuate”. For the same compound, the “systemic secretion of pro-inflammatory cytokines like IL-1β and IL-6” value ([2]; summary statement) was “suppresses”, the lipase activity [2, 5] was “promoting” and the postprandial lipid clearance [2, 5] was “promoting”. For the same compound, the “LPS-induced M1 polarization and subsequent cytokine expression (IL-1b, IL-6, etc. mRNA and protein levels)” value [3] was “attenuates”, the IC50 (IL-6; cell type not given) was ~16.5 µg/mL (≈ 26 µM) and the “down-stream activation of the MAPK pathway” value (MAPK pathway) was “regulate down-stream activation”. The cytokine expression ([4]; LPS-activated Thp-1 cells) was “effectively reduced”, the “LPS-induced M1 polarization and subsequent cytokine expression (IL-1b, IL-6, etc. mRNA and protein levels)” value ([4]; human cell line, preliminary results) was “attenuates” and the IC50 (IL-1β) was ~44.4 µg/mL (≈ 70.1 µM).
In the case of CC(=O)N[C@H]1[C@H]([C@H](O)[C@H](O)CO)O[C@@](OC[C@H]2O[C@@H](O[C@H]3[C@H](O)[C@@H](O)[C@H](O)O[C@@H]3CO)[C@H](O)[C@@H](O)[C@H]2O)(C(=O)O)C[C@@H]1O [6′SL, 6′-sialyllactose], the “inflammation in the liver, adipose tissue and arterial vessel wall” value ([2]; summary statement) is reported as “attenuate”, the “systemic secretion of pro-inflammatory cytokines like IL-1β and IL-6” value ([2]; summary statement) is reported as “suppresses” and the therapeutic effect (IL-6; test not specified, stated directly after the 3′SL cytokine IC50 values) is reported as “therapeutic effect”.
